Columns and labels:
redroot pigweed [1] = test: Test Example 5: herbicidal effect by foliage application, plastic box (Table 20, symbol N); type: in vivo, redroot pigweed (Amaranthus retroflexus); settings: foliage application, 320 g/ha, evaluated three weeks after application
How it was run: (§1)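 Post-emergence foliar test in sterilized diluvial soil. Compound applied as water-diluted emulsion at a predetermined rate to 14-day-old plants; evaluation at three weeks.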

velvetleaf [2] = test: Test Example 4: herbicidal effect by soil treatment (Table 19, symbol M); type: in vivo, velvetleaf (Abutilon theophrasti); settings: amount of applied herbicide 320 g/ha
How it was run: (§2)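 Emulsion of test compound, water-diluted to predetermined amount, sprayed on soil after sowing (seed depth ~1.5 cm, sterilized diluvial soil). Greenhouse, 25–30° C. Effect graded at three weeks post-spray.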

Italian ryegrass [3] = test: Test Example 5: herbicidal effect by foliage application, plastic box (Table 20, symbol K); type: in vivo, Italian ryegrass (Lolium multiflorum); settings: foliage application, 320 g/ha, evaluated three weeks after application
How it was run: as §1

Italian ryegrass [4] = test: Test Example 4: herbicidal effect by soil treatment (Table 19, symbol K); type: in vivo, Italian ryegrass (Lolium multiflorum); settings: amount of applied herbicide 320 g/ha
How it was run: as §2

windgrass [5] = test: Test Example 4: herbicidal effect by soil treatment (Table 19, symbol L); type: in vivo, windgrass (Apera spica-venti); settings: amount of applied herbicide 320 g/ha
How it was run: as §2

southern crabgrass [6] = test: Test Example 5: herbicidal effect by foliage application, plastic box (Table 20, symbol F); type: in vivo, southern crabgrass (Digitaria ciliaris); settings: foliage application, 320 g/ha, evaluated three weeks after application
How it was run: as §1

barnyard grass [7] = test: Test Example 5: herbicidal effect by foliage application, plastic box (Table 20, symbol H); type: in vivo, barnyard grass (Echinochloa crus-galli); settings: foliage application, 320 g/ha, evaluated three weeks after application
How it was run: as §1

green foxtail [8] = test: Test Example 4: herbicidal effect by soil treatment (Table 19, symbol G); type: in vivo, green foxtail (Setaria viridis); settings: amount of applied herbicide 320 g/ha
How it was run: as §2

Chinese sprangletop = test: Test Example 3: herbicidal effect by foliage application, Wagner pot (Table 18, symbol D); type: in vivo, chinese sprangletop (Leptochloa chinensis); settings: amount of applied herbicide 320 g/ha
How it was run: (§3)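 Plants were sown in alluvial soil held under 0.1–0.5 cm standing water and grown 14 days in a greenhouse at 25–30 °C. An emulsifiable formulation, water-diluted to the set dose, was then sprayed onto the foliage, and effects were scored three weeks later using previously defined criteria.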

green foxtail [9] = test: Test Example 5: herbicidal effect by foliage application, plastic box (Table 20, symbol G); type: in vivo, green foxtail (Setaria viridis); settings: foliage application, 320 g/ha, evaluated three weeks after application
How it was run: as §1

persian speedwell [10] = test: Test Example 5: herbicidal effect by foliage application, plastic box (Table 20, symbol R); type: in vivo, Persian speedwell (Veronica persica); settings: foliage application, 320 g/ha, evaluated three weeks after application
How it was run: as §1

wild oat [11] = test: Test Example 5: herbicidal effect by foliage application, plastic box (Table 20, symbol I); type: in vivo, wild oat (Avena fatua); settings: foliage application, 320 g/ha, evaluated three weeks after application
How it was run: as §1

persian speedwell [12] = test: Test Example 4: herbicidal effect by soil treatment (Table 19, symbol R); type: in vivo, Persian speedwell (Veronica persica); settings: amount of applied herbicide 320 g/ha
How it was run: as §2

barnyard grass [13] = test: Test Example 3: herbicidal effect by foliage application, Wagner pot (Table 18, symbol H); type: in vivo, barnyard grass (Echinochloa crus-galli); settings: amount of applied herbicide 320 g/ha
How it was run: as §3

lambsquarters [14] = test: Test Example 4: herbicidal effect by soil treatment (Table 19, symbol O); type: in vivo, lambsquarters (Chenopodium album); settings: amount of applied herbicide 320 g/ha
How it was run: as §2

southern crabgrass [15] = test: Test Example 4: herbicidal effect by soil treatment (Table 19, symbol F); type: in vivo, southern crabgrass (Digitaria ciliaris); settings: amount of applied herbicide 320 g/ha
How it was run: as §2

wild oat [16] = test: Test Example 4: herbicidal effect by soil treatment (Table 19, symbol I); type: in vivo, wild oat (Avena fatua); settings: amount of applied herbicide 320 g/ha
How it was run: as §2

blackgrass = test: Test Example 5: herbicidal effect by foliage application, plastic box (Table 20, symbol J); type: in vivo, blackgrass (Alopecurus myosuroides); settings: foliage application, 320 g/ha, evaluated three weeks after application
How it was run: as §1

velvetleaf [17] = test: Test Example 5: herbicidal effect by foliage application, plastic box (Table 20, symbol M); type: in vivo, velvetleaf (Abutilon theophrasti); settings: foliage application, 320 g/ha, evaluated three weeks after application
How it was run: as §1

windgrass [18] = test: Test Example 5: herbicidal effect by foliage application, plastic box (Table 20, symbol L); type: in vivo, windgrass (Apera spica-venti); settings: foliage application, 320 g/ha, evaluated three weeks after application
How it was run: as §1

rice flat sedge = test: Test Example 3: herbicidal effect by foliage application, Wagner pot (Table 18, symbol E); type: in vivo, rice flat sedge (Cyperus iria); settings: amount of applied herbicide 320 g/ha
How it was run: as §3

redroot pigweed [19] = test: Test Example 4: herbicidal effect by soil treatment (Table 19, symbol N); type: in vivo, redroot pigweed (Amaranthus retroflexus); settings: amount of applied herbicide 320 g/ha
How it was run: as §2

lambsquarters [20] = test: Test Example 5: herbicidal effect by foliage application, plastic box (Table 20, symbol O); type: in vivo, lambsquarters (Chenopodium album); settings: foliage application, 320 g/ha, evaluated three weeks after application
How it was run: as §1

barnyard grass [21] = test: Test Example 4: herbicidal effect by soil treatment (Table 19, symbol H); type: in vivo, barnyard grass (Echinochloa crus-galli); settings: amount of applied herbicide 320 g/ha
How it was run: as §2

chickweed [22] = test: Test Example 5: herbicidal effect by foliage application, plastic box (Table 20, symbol P); type: in vivo, common chickweed (Stellaria media); settings: foliage application, 320 g/ha, evaluated three weeks after application
How it was run: as §1

chickweed [23] = test: Test Example 4: herbicidal effect by soil treatment (Table 19, symbol P); type: in vivo, common chickweed (Stellaria media); settings: amount of applied herbicide 320 g/ha
How it was run: as §2

SMILES: Cc1nn(C)c(=O)c(-c2c(-c3ccccc3C(F)(F)F)sc3ccc(F)cc23)c1O [2-229]
- herbicidal effect on N: redroot pigweed (criteria 0-5) (redroot pigweed [1]): 4 (Herbicidal rate of 70% or more and less than 90%)
- herbicidal effect on M: velvetleaf (velvetleaf [2]): 1 (Herbicidal rate of 5% or more and less than 20%)
- herbicidal effect on K: Italian ryegrass (criteria 0-5) (Italian ryegrass [3]): 4 (Herbicidal rate of 70% or more and less than 90%)
- herbicidal effect on K: Italian ryegrass (Italian ryegrass [4]): 2 (Herbicidal rate of 20% or more and less than 40%)
- herbicidal effect on L: windgrass (windgrass [5]): 0 (Herbicidal rate of 5% or less (almost no effect))
- herbicidal effect on F: southern crabgrass (criteria 0-5) (southern crabgrass [6]): 3 (Herbicidal rate of 40% or more and less than 70%)
- herbicidal effect on H: barnyard grass (criteria 0-5) (barnyard grass [7]): 3 (Herbicidal rate of 40% or more and less than 70%)
- herbicidal effect on G: green foxtail (green foxtail [8]): 3 (Herbicidal rate of 40% or more and less than 70%)
- herbicidal effect on D: Chinese sprangletop (Chinese sprangletop): 3 (Herbicidal rate of 40% or more and less than 70%)
- herbicidal effect on G: green foxtail (criteria 0-5) (green foxtail [9]): 5 (Herbicidal rate of 90% or more (almost completely withered))
- herbicidal effect on R: persian speedwell (criteria 0-5) (persian speedwell [10]): 5 (Herbicidal rate of 90% or more (almost completely withered))
- herbicidal effect on I: wild oat (criteria 0-5) (wild oat [11]): 1 (Herbicidal rate of 5% or more and less than 20%)
- herbicidal effect on R: persian speedwell (persian speedwell [12]): 0 (Herbicidal rate of 5% or less (almost no effect))
- herbicidal effect on H: barnyard grass (barnyard grass [13]): 4 (Herbicidal rate of 70% or more and less than 90%)
- herbicidal effect on O: lambsquarters (lambsquarters [14]): 3 (Herbicidal rate of 40% or more and less than 70%)
- herbicidal effect on F: southern crabgrass (southern crabgrass [15]): 3 (Herbicidal rate of 40% or more and less than 70%)
- herbicidal effect on I: wild oat (wild oat [16]): 0 (Herbicidal rate of 5% or less (almost no effect))
- herbicidal effect on J: blackgrass (criteria 0-5) (blackgrass): 3 (Herbicidal rate of 40% or more and less than 70%)
- herbicidal effect on M: velvetleaf (criteria 0-5) (velvetleaf [17]): 4 (Herbicidal rate of 70% or more and less than 90%)
- herbicidal effect on L: windgrass (criteria 0-5) (windgrass [18]): 4 (Herbicidal rate of 70% or more and less than 90%)
- herbicidal effect on E: rice flat sedge (rice flat sedge): 4 (Herbicidal rate of 70% or more and less than 90%)
- herbicidal effect on N: redroot pigweed (redroot pigweed [19]): 2 (Herbicidal rate of 20% or more and less than 40%)
- herbicidal effect on O: lambsquarters (criteria 0-5) (lambsquarters [20]): 4 (Herbicidal rate of 70% or more and less than 90%)
- herbicidal effect on H: barnyard grass (barnyard grass [21]): 1 (Herbicidal rate of 5% or more and less than 20%)
- herbicidal effect on P: chickweed (criteria 0-5) (chickweed [22]): 5 (Herbicidal rate of 90% or more (almost completely withered))
- herbicidal effect on P: chickweed (chickweed [23]): 1 (Herbicidal rate of 5% or more and less than 20%)

From patent US20230085307A1, “PYRIDAZINONE COMPOUND AND HERBICIDE” (NISSAN CHEMICAL CORPORATION, priority 2019, published 2023)
